This passage reports EC50 results from patent publication US8664387B2, “Pyridoquinazolinone M1 receptor positive allosteric modulators” (Merck Sharp & Dohme Corp., priority 2009, dated 2014).

The target of the assay is T1, acetylcholine muscarinic M1 receptor (Homo sapiens, UniProt P11229).
T1 construct: expressed in transfected cells; host or cells: CHOnfat cells (CHOnfat/hM1; geneticin selection)
T1 sequence (P11229 1-460): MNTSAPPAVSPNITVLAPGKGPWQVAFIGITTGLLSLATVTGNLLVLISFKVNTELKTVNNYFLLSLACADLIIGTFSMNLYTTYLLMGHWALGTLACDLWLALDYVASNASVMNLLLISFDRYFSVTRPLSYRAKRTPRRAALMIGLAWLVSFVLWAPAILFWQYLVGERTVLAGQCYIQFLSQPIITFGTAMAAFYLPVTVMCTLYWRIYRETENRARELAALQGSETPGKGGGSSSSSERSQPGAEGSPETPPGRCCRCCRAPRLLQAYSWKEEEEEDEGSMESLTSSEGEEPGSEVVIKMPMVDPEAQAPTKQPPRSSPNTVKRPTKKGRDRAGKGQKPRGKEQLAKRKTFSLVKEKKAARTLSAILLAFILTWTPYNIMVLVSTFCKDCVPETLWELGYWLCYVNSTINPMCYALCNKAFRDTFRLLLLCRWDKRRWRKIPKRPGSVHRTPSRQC
Kind of assay: muscarinic FLIPR calcium assay, M1 positive allosteric modulation. In kind it is cell-based. The note with it: CHOnfat/hM1 cells, FLIPR intracellular Ca2+, 4 min preincubation, then EC20 acetylcholine (3 nM final); read-out: IP Value (inflection point). How it is done: The assay studies the effect of one or several concentrations of test compounds on basal or acetylcholine-stimulated Ca^2+ levels using FLIPR.
Compounds are prepared and subjected to a preincubation period of 4 min. Thereafter, a single EC20 concentration of acetylcholine is added to each well (3 nM final). The intracellular Ca^2+ level of each sample is measured and compared to an acetylcholine control to determine any modulatory activity.
Cells: CHOnfat/hM1, hM2, hM3 or hM4 cells are plated 24 hr before the assay at a density of 18,000 cells/well (100 μL) in a 384 well plate. CHOnfat/hM1 and CHOnfat/hM3 Growth Medium: 90% DMEM (Hi Glucose); 10% HI FBS; 2 mM L-glutamine; 0.1 mM NEAA; Pen-Strep; and 1 mg/ml Geneticin, are added. For M2Gqi5CHOnfat and M4Gqi5CHOnfat cells, an additional 600 ug/ml hygromycin is added.
Equipment: 384 well plate, 120 μL addition plate; 96-well Whatman 2 ml Uniplate Incubator, 37° C., 5% CO2; Skatron EMBLA-384 Plate Washer; Multimek Pipetting System; Genesis Freedom 200 System; Mosquito System; Temo Nanoliter Pipetting System; and FLIPR^384 Fluorometric Imaging Plate Reader System are used.
Buffers. Assay Buffer: Hanks Balanced Salt Solution, with 20 mM Hepes, 2.5 mM Probenecid (Sigma P-8761) first dissolved in 1 N NaOH, 1% Bovine Serum Albumin (Sigma A-9647). Dye Loading Buffer: Assay Buffer plus 1% Fetal Bovine Serum and Fluo-4AM/Pluronic Acid Mixture. 2 mM Fluo-4AM ester stock in DMSO (Molecular Probes F-14202) Concentration of 2 μM in buffer for a final concentration of 1 μM in Assay. 20% Pluronic Acid Solution stock, with concentration of 0.04% in Buffer, 0.02% in Assay.
65 μL of 2 mM Fluo-4AM are mixed with 130 μL of 20% Pluronic Acid. The resulting solution and 650 μL FBS is added to the assay buffer for a total volume of 65 mL. Positive Controls: 4-Br-A23187: 10 mM in DMSO; final concentration 10 μM. Acetylcholine: 10 mM in water, working stock at both 20 μM and 30 µM in assay buffer, final concentration of 10 μM. This is used to check the maximum stimulation of the CHOK1/hM1 cells. 20 μM (2×) acetylcholine is added in the preincubation part of the assay, and the 30 μM (3×) stock is added in the second part. (EC20)Acetylcholine: 10 mM in water, working stock of 9 nM (3×), and final concentration in assay is 3 nM. This is used after the preincubation with test compounds. Addition of the EC20 Acetylcholine to each well with a test compound will ascertain any modulator activity. 24 wells contain 3 nM Acetylcholine alone as a control.
Determining Activity of Putative Compounds: • Screening Plate: Compounds are titrated in 96-well plates (columns 2-11), 100% DMSO, started at a concentration of 15 mM (150× stock concentration), and 3-fold serial dilutions using Genesis Freedom200 System. Four 96-well plates are combined into a 384-well plate using Mosquito Nanoliter Pipetting System by transferring 1 μl of serial diluted compounds to each well, and 1 mM acetylcholine (100× stock concentration) were added as a control. Using Temo, 49 μl assay buffer is added to each well of the 384-well plate right before assay.
In a 96-well Whatman 2 ml Uniplate, 9 nM Acetylcholine (3×) is pipetted into wells corresponding to the screening compounds, and into control wells. The 30 μM acetylcholine control (3×) is added into control wells, and the 3× agonist plate is transferred into a 384 well plate.
Cells are washed three times with 100 μL of buffer, leaving 30 μL of buffer in each well. Using Multimek, 30 μL of Dye Loading Buffer is added into each well and incubated at 37° C., 5% CO2 for up to one hr.
After 60 min, the cells are washed three times with 100 μL of buffer, leaving 30 μL of buffer in each well. The cell plate, screening plate, and agonist addition plates are placed on the platform in the FLIPR and the door closed. A signal test to check background fluorescence and basal fluorescence signal is performed. Laser intensity is adjusted if necessary. […]
For `O=c1c2cc(Cc3ccc(Cl)nc3)c3cnccc3c2ncn1[C@H]1CCCC[C@@H]1O` [Example 1, 6-[(6-Chloropyridin-3-yl)methyl]-3-[(1S,2S)-2-hydroxycyclohexyl]pyrido[3,4-h]quinazolin-4(3H)-one], the EC50 was 0.038 µM. As to `O=c1c2cc(Cc3ccc(Cl)nc3)c3cnccc3c2ncn1[C@H]1CCOC[C@@H]1O` [Example 2, 6-[(6-Chloropyridin-3-yl)methyl]-3-[(3R,4S)-3-hydroxytetrahydro-2H-pyran-4-yl]pyrido[3,4-h]quinazolin-4(3H)-one], the EC50 came out at 0.176 µM. For the molecule `Cc1ccc(Cc2cc3c(=O)n([C@H]4CCCC[C@@H]4O)cnc3c3ccncc23)cn1` [Example 4, 3-[(1S,2S)-2-Hydroxycyclohexyl]-6-[(6-methylpyridin-3-yl)methyl]pyrido[3,4-h]quinazolin-4(3H)-one], the EC50 was determined as 0.041 µM. Regarding `COc1ccc(Cc2cc3c(=O)n([C@H]4CCCC[C@@H]4O)cnc3c3ccncc23)cn1` [Example 5, 3-[(1S,2S)-2-Hydroxycyclohexyl]-6-[(6-methoxypyridin-3-yl)methyl]pyrido[3,4-h]quinazolin-4(3H)-one], the EC50 was 0.11 µM.

Turning to `CSc1ccc(Cc2cc3c(=O)n([C@H]4CCCC[C@@H]4O)cnc3c3ccncc23)cn1` [Example 6, 3-[(1S,2S)-2-Hydroxycyclohexyl]-6-{[6-(methylthio)pyridine-3-yl]methyl}pyrido[3,4-h]quinazolin-4(3H)-one], the EC50 came to 0.071 µM. The result for `O=c1c2cc(Cc3ccc(-n4cccn4)nc3)c3ncccc3c2ncn1[C@H]1CCCC[C@@H]1O` [Example 7, 3-[(1S,2S)-2-Hydroxycyclohexyl]-6-{[6-(1H-pyrazol-1-yl)pyridine-3-yl]methyl}pyrido[2,3-h]quinazolin-4(3H)-one] reads 0.029 µM; that for `Cn1cc(-c2ccc(Cc3cc4c(=O)n([C@H]5CCCC[C@@H]5O)cnc4c4ccncc34)cn2)cn1` [Example 8, 3-[(1S,2S)-2-Hydroxycyclohexyl]-6-{[6-(1-methyl-1H-pyrazol-4-yl)pyridine-3-yl]methyl}pyrido[3,4-h]quinazolin-4(3H)-one], 0.006 µM. The result for `O=c1c2cc(Cc3ccc(-c4cnccn4)nc3)c3cnccc3c2ncn1[C@H]1CCCC[C@@H]1O` [Example 9, 3-[(1S,2S)-2-Hydroxycyclohexyl]-6-[(6-pyrazin-2-ylpyridin-3-yl)methyl]pyrido[3,4-h]quinazolin-4(3H)-one] reads 0.064 µM; that for `O=Cc1ccc(Cc2cc3c(=O)n([C@H]4CCCC[C@@H]4O)cnc3c3ccncc23)cc1` [Example 10, 4-({3-[(1S,2S)-2-Hydroxycyclohexyl]-4-oxo-3,4-dihydropyrido[3,4-h]quinazolin-6-yl}methyl)benzaldehyde], 0.036 µM. On to `CC(O)c1ccc(Cc2cc3c(=O)n([C@H]4CCCC[C@@H]4O)cnc3c3ccncc23)cc1` (stereo partly drawn) [Example 11, 3-[(1S,2S)-2-Hydroxycyclohexyl]-6-[4-(1-hydroxyethyl)benzyl]pyrido[3,4-h]quinazolin-4(3H)-one], for which the EC50 was determined as 0.092 µM.

Consider `CCC(O)c1ccc(Cc2cc3c(=O)n([C@H]4CCCC[C@@H]4O)cnc3c3ccncc23)cc1` (stereo partly drawn) [Example 12, 3-[(1S,2S)-2-Hydroxycyclohexyl]-6-[4-(1-hydroxypropyl)benzyl]pyrido[3,4-h]quinazolin-4(3H)-one], for which the EC50 was determined as 0.13 µM. The result for `O=c1c2cc(Cc3ccc(N4CCOCC4)cc3)c3cnccc3c2ncn1[C@H]1CCCC[C@@H]1O` [Example 13, 3-[(1S,2S)-2-Hydroxycyclohexyl]-6-(4-morpholin-4-ylbenzyl)pyrido[3,4-h]quinazolin-4(3H)-one] reads 0.091 µM. Turning to `Cc1cc(Cc2cc3c(=O)n([C@H]4COCC[C@@H]4O)cnc3c3cccnc23)ccn1` [Example 14, 3-[(3S,4S)-4-Hydroxytetrahydro-2H-pyran-3-yl]-6-[(2-methylpyridin-4-yl)methyl]pyrido[2,3-h]quinazolin-4(3H)-one], the EC50 came to 0.851 µM.
